{"source": "patent US11285130B2", "about": "“Treatment of mitochondrial diseases” (Khondrion IP B.V., priority 2017, dated 2022)", "key": {"[1]": {"details": "male, human, in vivo, 28 days"}, "[2]": {"tested_on": "primary human fibroblasts from patients with Leigh syndrome", "assay": "Oxidative stress-induced cell death (BSO) assay, Leigh patient fibroblasts", "assay_type": "cell-based", "details": "Homo sapiens, in vitro fibroblast assays (Redox assay), fibroblast type not given, values match Leigh", "source_text": "(§1) To determine the effective concentration of the compounds (the concentrations that protect patient cells against oxidative stress-induced cell death) the applicant established an assay using stressed primary human fibroblasts from patients with Leigh syndrome, MELAS or LHON diseases. Utilising the inherent oxidative stress of fibroblasts from patients with mitochondrial disease, their oxidative burden was further increased by depleting cellular glutathione with an inhibitor of glutathione synthesis, L-buthionine-(S,R)-sulfoximine (BSO). […] Cells were seeded at a density of 3000 cells/well in a 96-well format and incubated with increasing concentrations of compounds in combination with BSO (100 μM, Sigma-aldrich). One day after treatment, the cells were washed twice and stained with a solution of 5 μM calcein-AM (Life technologies C3100MP) during 25 min in 199 medium without phenol red (Life technologies, 11043-023) at room temperature. After 2 washes with PBS (Phosphate buffered saline) the plate was read on a fluorescence plate reader (Fluostar Omega, BMG labtech) and the percentage of cell viability determined as a function of fluorescence intensity."}, "[3]": {"target": "hERG potassium channel (Homo sapiens, UniProt Q12809)", "sequence (Q12809 whole entry)": "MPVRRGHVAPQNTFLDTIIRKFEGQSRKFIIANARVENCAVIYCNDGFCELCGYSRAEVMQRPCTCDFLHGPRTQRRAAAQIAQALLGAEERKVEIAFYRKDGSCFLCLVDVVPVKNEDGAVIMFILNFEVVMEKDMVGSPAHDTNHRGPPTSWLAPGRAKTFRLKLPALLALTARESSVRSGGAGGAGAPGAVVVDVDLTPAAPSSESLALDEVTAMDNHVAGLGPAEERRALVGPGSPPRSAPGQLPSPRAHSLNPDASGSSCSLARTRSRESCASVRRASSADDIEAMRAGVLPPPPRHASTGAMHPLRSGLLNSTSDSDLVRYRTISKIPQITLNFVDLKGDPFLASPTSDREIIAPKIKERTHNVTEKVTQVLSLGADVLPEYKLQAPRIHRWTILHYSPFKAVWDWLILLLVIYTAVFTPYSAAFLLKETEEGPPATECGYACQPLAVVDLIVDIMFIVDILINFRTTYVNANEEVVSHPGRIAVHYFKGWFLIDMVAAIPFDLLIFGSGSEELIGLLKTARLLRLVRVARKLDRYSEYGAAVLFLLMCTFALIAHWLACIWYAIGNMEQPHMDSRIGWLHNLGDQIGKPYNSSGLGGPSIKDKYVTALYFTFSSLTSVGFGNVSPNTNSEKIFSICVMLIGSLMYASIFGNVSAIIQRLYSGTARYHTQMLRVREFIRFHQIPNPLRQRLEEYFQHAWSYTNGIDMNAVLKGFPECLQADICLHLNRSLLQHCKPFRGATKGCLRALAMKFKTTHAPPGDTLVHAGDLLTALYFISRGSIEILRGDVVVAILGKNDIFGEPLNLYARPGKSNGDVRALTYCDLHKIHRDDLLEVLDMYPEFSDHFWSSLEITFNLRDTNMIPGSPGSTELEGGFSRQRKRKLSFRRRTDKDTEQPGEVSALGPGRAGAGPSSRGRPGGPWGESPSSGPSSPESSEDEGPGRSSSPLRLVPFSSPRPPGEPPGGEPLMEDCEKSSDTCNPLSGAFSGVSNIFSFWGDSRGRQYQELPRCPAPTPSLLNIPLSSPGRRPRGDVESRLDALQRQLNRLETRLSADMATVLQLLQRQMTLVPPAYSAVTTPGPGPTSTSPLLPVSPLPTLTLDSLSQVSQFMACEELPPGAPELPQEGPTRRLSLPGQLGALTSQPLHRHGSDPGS", "assay": "hERG blocking", "assay_type": "biochemical"}, "[4]": {"assay": "SAD study safety and tolerability (adverse events), healthy male volunteers"}, "[5]": {"target": "CYP3A4 (Homo sapiens, UniProt P08684)", "sequence (P08684 whole entry)": "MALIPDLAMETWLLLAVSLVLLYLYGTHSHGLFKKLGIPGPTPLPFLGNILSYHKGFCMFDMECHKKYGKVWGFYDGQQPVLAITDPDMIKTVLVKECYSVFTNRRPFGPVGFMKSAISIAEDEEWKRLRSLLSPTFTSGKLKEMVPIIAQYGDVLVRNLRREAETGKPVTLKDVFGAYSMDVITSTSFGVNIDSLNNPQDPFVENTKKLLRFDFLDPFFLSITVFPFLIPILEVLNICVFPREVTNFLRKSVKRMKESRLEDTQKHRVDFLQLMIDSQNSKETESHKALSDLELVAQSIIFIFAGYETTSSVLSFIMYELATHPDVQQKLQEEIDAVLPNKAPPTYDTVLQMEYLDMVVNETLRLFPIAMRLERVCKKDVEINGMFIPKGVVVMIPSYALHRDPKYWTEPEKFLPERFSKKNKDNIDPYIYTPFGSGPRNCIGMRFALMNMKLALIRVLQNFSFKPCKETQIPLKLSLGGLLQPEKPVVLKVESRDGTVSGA", "assay": "In vitro metabolism", "assay_type": "in vitro ADME"}, "[6]": {"tested_on": "primary human fibroblasts from patients with LHON", "assay": "Oxidative stress-induced cell death (BSO) assay, LHON patient fibroblasts", "assay_type": "cell-based", "details": "Homo sapiens, Fibroblast; fibroblasts derived from LHON patients, 100 μM BSO; read-out: EC50, protection from oxidative stress-induced cell death", "source_text": "as §1"}, "[7]": {"tested_on": "primary human fibroblasts from patients with MELAS", "assay": "Oxidative stress-induced cell death (BSO) assay, MELAS patient fibroblasts", "assay_type": "cell-based", "details": "Homo sapiens, Fibroblast; fibroblasts derived from MELAS patients, 100 μM BSO; unit as printed for KH176; read-out: EC50, protection from oxidative stress-induced cell death", "source_text": "as §1"}, "[8]": {"assay": "Protein binding", "assay_type": "in vitro ADME"}, "[9]": {"assay": "SAD study pharmacokinetic analysis", "assay_type": "in vivo, human", "details": "for AUC(0-t) / Cmax / Tmax / AUC(0-inf) / half-life: male, human, plasma, oral; for AUC(0-t): read-out: AUClast (Geomean); for Cmax: read-out: Cmax (Geomean); for AUC(0-inf): read-out: AUC0-inf (Geomean)", "method": "Dose escalation to the next dose level was done after evaluation of the safety and the first 24-hour pharmacokinetic results of the previous dose. […] Anticipated exposures at this starting dose were just below the Minimum Anticipated Biological Effect Level (MABEL). Placebo (an in taste and appearance matching oral liquid) was also administered orally on one occasion in the single-ascending dose part and b.i.d. for 7 Days in the MAD part. […] All samples were stored at <-70° C. until analysis. […] For mean value calculations, all values below the limit of quantification (LOQ) were set to zero. […] The non-compartmental pharmacokinetic analysis was performed using Phoenix, Version 6.3 (Pharsight Corporation, Mountain View, Calif., USA). […] The PK parameters were calculated on the basis of the actual blood sampling time points relative to dosing. Selected pharmacokinetic parameters (Cmax, tmax, t1/2, AUClast and AUC0-int) following single-dose administration and selected pharmacokinetic parameters Cmax, tmax, [NT], the accumulation factor (Racc) and time to reach steady state) following multiple dose administration were determined. In urine, the percentage of dose excreted in urine was determined for the single- and multiple-dose administration."}, "[10]": {"details": "10 mg, SAD, KH176 10 mg, fasted"}, "[11]": {"details": "30 mg, SAD, KH176 30 mg, fasted"}, "[12]": {"details": "100 mg, SAD, KH176 100 mg, fasted"}, "[13]": {"details": "300 mg, SAD, KH176 300 mg, fasted"}, "[14]": {"details": "800 mg, SAD, KH176 800 mg, fasted"}, "[15]": {"details": "2000 mg, SAD, KH176 2000 mg, fasted"}}, "note": "Read-outs that look alike come from different tables or passages of the source."}
{"compound": "Cc1c(C)c2c(c(C)c1O)CC[C@@](C)(C(=O)N[C@@H]1CCCNC1)O2.Cl", "note": "[KH176, (S)-6-hydroxy-2,5,7,8-tetramethyl-N-((R)-piperidin-3-yl)chroman-2-carboxamide hydrochloride]", "values": [{"measurement": "AEs rated mild in severity", "setting": "[1]", "result": 35}, {"measurement": "AEs reported by subjects in the highest dose group", "setting": "[1]", "result": 28}, {"measurement": "moderate AEs", "setting": "[1]", "result": 6}, {"measurement": "severe AEs", "setting": "[1]", "result": 2}, {"measurement": "subjects reporting AEs", "setting": "[1]", "result": 14, "unit": "subjects"}, {"measurement": "total adverse events (AEs) reported", "setting": "[1]", "result": 43}, {"measurement": "EC50", "setting": "[2]; read-out: EC50", "result": 182, "unit": "nM"}, {"measurement": "EC50", "setting": "[2]; read-out: EC50 expressed", "result": "~0.06", "unit": "µg/mL"}, {"measurement": "IC50 of hERG blocking relative to the Cmax for the highest dose", "setting": "[3]", "result": 3, "unit": "times"}, {"measurement": "TEAE: Influenza like illness (subjects)", "setting": "[4]; SAD 10 mg (N = 4)", "result": "0 n (%)"}, {"measurement": "TEAE: Influenza like illness (subjects)", "setting": "[4]; SAD 30 mg (N = 4)", "result": "0 n (%)"}, {"measurement": "TEAE: Influenza like illness (subjects)", "setting": "[4]; SAD 100 mg (N = 4)", "result": "0 n (%)"}, {"measurement": "TEAE: Influenza like illness (subjects)", "setting": "[4]; SAD 100 mg + Food (N = 4)", "result": "0 n (%)"}, {"measurement": "TEAE: Influenza like illness (subjects)", "setting": "[4]; SAD 300 mg (N = 4)", "result": "0 n (%)"}, {"measurement": "TEAE: Influenza like illness (subjects)", "setting": "[4]; SAD 800 mg (N = 6)", "result": "0 n (%)"}, {"measurement": "TEAE: Influenza like illness (subjects)", "setting": "[4]; SAD 2000 mg (N = 4)", "result": "0 n (%)"}, {"measurement": "metabolism", "setting": "[5]", "result": "metabolized by CYP3A4"}, {"measurement": "EC50", "setting": "[6]", "result": 49, "unit": "nM"}, {"measurement": "EC50", "setting": "[7]", "result": 182, "unit": "nM"}, {"measurement": "fraction unbound", "setting": "[8]", "result": "0.4 to 0.5"}, {"measurement": "AUC0-inf ratio (fed/fasted), 90% CI", "setting": "[9]; 100 mg, fed versus fasted", "result": "1.28 (90% Cl 1.12-1.45)"}, {"measurement": "administered dose excreted in urine as unchanged KH176", "setting": "[9]; SAD", "result": "approximately 12%"}, {"measurement": "AUC(0-t)", "setting": "[9]; [10]", "result": 75, "unit": "ng·h/mL"}, {"measurement": "Cmax", "setting": "[9]; [10]", "result": 12.9, "unit": "ng/mL"}, {"measurement": "Tmax", "setting": "[9]; 10 mg, SAD, KH176 10 mg, fasted, read-out: tmax* (median)", "result": 1.25, "unit": "h"}, {"measurement": "AUC(0-inf)", "setting": "[9]; [11]", "result": 474, "unit": "ng·h/mL"}, {"measurement": "AUC(0-t)", "setting": "[9]; [11]", "result": 389, "unit": "ng·h/mL"}, {"measurement": "Cmax", "setting": "[9]; [11]", "result": 56.2, "unit": "ng/mL"}, {"measurement": "half-life", "setting": "[9]; 30 mg, SAD, KH176 30 mg, fasted, read-out: t1/2 (Geomean) (converted)", "result": 10.3, "unit": "h"}, {"measurement": "Tmax", "setting": "[9]; 30 mg, SAD, KH176 30 mg, fasted, read-out: tmax* (median)", "result": 1.25, "unit": "h"}, {"measurement": "AUC(0-inf)", "setting": "[9]; [12]", "result": 1540, "unit": "ng·h/mL"}, {"measurement": "AUC(0-t)", "setting": "[9]; [12]", "result": 1310, "unit": "ng·h/mL"}, {"measurement": "Cmax", "setting": "[9]; [12]", "result": 167, "unit": "ng/mL"}, {"measurement": "half-life", "setting": "[9]; 100 mg, SAD, KH176 100 mg, fasted, read-out: t1/2 (Geomean) (converted)", "result": 9.1, "unit": "h"}, {"measurement": "Tmax", "setting": "[9]; 100 mg, SAD, KH176 100 mg, fasted, read-out: tmax* (median)", "result": 1, "unit": "h"}, {"measurement": "AUC(0-inf)", "setting": "[9]; 100 mg, SAD, KH176 100 mg, fed", "result": 1970, "unit": "ng·h/mL"}, {"measurement": "AUC(0-t)", "setting": "[9]; 100 mg, SAD, KH176 100 mg, fed", "result": 1650, "unit": "ng·h/mL"}, {"measurement": "Cmax", "setting": "[9]; 100 mg, SAD, KH176 100 mg, fed", "result": 165, "unit": "ng/mL"}, {"measurement": "half-life", "setting": "[9]; 100 mg, SAD, KH176 100 mg, fed, read-out: t1/2 (Geomean) (converted)", "result": 9.09, "unit": "h"}, {"measurement": "Tmax", "setting": "[9]; 100 mg, SAD, KH176 100 mg, fed, read-out: tmax* (median)", "result": 2.5, "unit": "h"}, {"measurement": "Tmax", "setting": "[9]; 100 mg, fasted condition (100 mg), read-out: median tmax", "result": "~1", "unit": "h"}, {"measurement": "Tmax", "setting": "[9]; 100 mg, fed condition (100 mg, high calorie/high fat breakfast), read-out: median tmax", "result": 2.5, "unit": "h"}, {"measurement": "AUC(0-inf)", "setting": "[9]; [13]", "result": 7500, "unit": "ng·h/mL"}, {"measurement": "AUC(0-t)", "setting": "[9]; [13]", "result": 6320, "unit": "ng·h/mL"}, {"measurement": "Cmax", "setting": "[9]; [13]", "result": 766, "unit": "ng/mL"}, {"measurement": "half-life", "setting": "[9]; 300 mg, SAD, KH176 300 mg, fasted, read-out: t1/2 (Geomean) (converted)", "result": 9.64, "unit": "h"}, {"measurement": "Tmax", "setting": "[9]; 300 mg, SAD, KH176 300 mg, fasted, read-out: tmax* (median)", "result": 0.992, "unit": "h"}, {"measurement": "AUC(0-inf)", "setting": "[9]; [14]", "result": 25800, "unit": "ng·h/mL"}, {"measurement": "AUC(0-t)", "setting": "[9]; [14]", "result": 21000, "unit": "ng·h/mL"}, {"measurement": "Cmax", "setting": "[9]; [14]", "result": 2170, "unit": "ng/mL"}, {"measurement": "half-life", "setting": "[9]; 800 mg, SAD, KH176 800 mg, fasted, read-out: t1/2 (Geomean) (converted)", "result": 9.8, "unit": "h"}, {"measurement": "Tmax", "setting": "[9]; 800 mg, SAD, KH176 800 mg, fasted, read-out: tmax* (median)", "result": 1.5, "unit": "h"}, {"measurement": "AUC(0-inf)", "setting": "[9]; [15]", "result": 79100, "unit": "ng·h/mL"}, {"measurement": "AUC(0-t)", "setting": "[9]; [15]", "result": 61200, "unit": "ng·h/mL"}, {"measurement": "Cmax", "setting": "[9]; [15]", "result": 5990, "unit": "ng/mL"}, {"measurement": "half-life", "setting": "[9]; 2000 mg, SAD, KH176 2000 mg, fasted, read-out: t1/2 (Geomean) (converted)", "result": 11.5, "unit": "h"}, {"measurement": "Tmax", "setting": "[9]; 2000 mg, SAD, KH176 2000 mg, fasted, read-out: tmax* (median)", "result": 0.75, "unit": "h"}, {"measurement": "Tmax", "setting": "[9]; SAD, across doses, read-out: median tmax", "result": "0.75 to 1.5", "unit": "h"}, {"measurement": "half-life", "setting": "[9]; SAD, approximate, across dose groups, read-out: t1/2 (converted)", "result": "~10", "unit": "h"}, {"measurement": "Tmax", "setting": "[9]; single- and multiple-dose administration, read-out: median tmax", "result": "0.75 to 2", "unit": "h"}]}
